In patent US12098352B2, “Stem cell-based lung-on-chip models” (EMULATE, INC., priority 2018, dated 2024):
Entries after “also recorded” stand apart in the source; their conditions may differ.

How the values were obtained:
[1] = system: Alveolus-Chip epithelium/endothelium barrier; assay: Barrier function assay (fluorescent dextran / Lucifer Yellow leakage) in Open-Top Alveolus-Chip; format: cell-based, human; details: for preventive effect on barrier leakage: co-administered with H2O2 (10 mM), 50 nM Bardoxolone, 0.01-1.0 μM GSK, 2 μM JQ1; for reversibility of barrier breakdown after removal of stressor: additional 2 days in fresh medium
Description: We studied interaction between different chip compartments by perturbating the system with biological and chemical stressors such as LPS, and H2O2 which are known to induce a reversible disruption of the cellular monolayer after acute administration both in vivo and in vitro. […] The presence of a strong barrier is indirectly confirmed by the presence of continuous pattern of E-cad and VE-cad in the monolayer of Alveolar epithelial and endothelial cell, respectively.
(§1) Given the limited availability of in vitro models that can closely mimic human alveolar epithelium function and/or its disease states, we explored whether a microfluidic Alveolus-Chip lined with the primary alveolar epithelial cells on an artificial lung stroma with embedded primary lung fibroblasts and pulmonary microvascular endothelial cells would model a lung injury state. To test this, we exposed the Alveolus-Chips to an acute damage generated by exposure to H2O2 under continuous infusion through the epithelium top channel, similarly to as it is […] administered in mice.
Air-Liquid interface was replaced by phenol red free MEM (GIBCO: 51200-038) and medium in the bottom fluidical spiraled channel substituted by one containing 1 mg/ml Lucifer Yellow CH, Lithium Salt (ThermoFisher: L453) or 0.1 mg/ml Dextran, Fluorescein, 3000 MW, Anionic, Lysine Fixable (ThermoFisher: D3306). Leakage of the fluorescent probe from the lumen of the spiraled channel to the epithelial compartment was collected from the outlet reservoirs after indicated hours of perfusion. The fluorescence intensity was measured with a 96-well fluorimeter at excitation/emission indicated by the manufacturer.

[2] = system: cellular monolayer barrier; assay: Barrier function in static transwell; format: cell-based; details: doses up to 100 ng/ml LPS, 10 mM H2O2
[3] = system: E-Cadherin; assay: E-Cadherin / phalloidin imaging of Alveolus-Chip epithelium after H2O2; format: cell-based, human
Experimental: In one embodiment, a method is used for testing the effects of activating the Nrf2 system on pathological cell responses using an activating treatment, such as H2O2; LPS, etc. […] Control left panel, H2O2 (10 mM) (48 h) treatment, right panel. E-cadherin (green) actin (pink) and nuclei blue.
as §1
Open-Top Organ-Chips were fixed in 10% neutral buffered formalin. Endothelial cells were stained inside the chip by performinutesg the immunofluorescence steps described below directly inside the microfluidic channel. Stroma equivalents were stained as described by the step below inside the chip or alternatively extracted from the chip and processed for immunohistochemistry analysis. […]

[4] = system: IL-6, IL-8 and MCP-1; assay: Cytokine secretion in chip medium effluent (ELISA); format: cell-based, human; details: 24 hours of exposure
Description: We studied interaction between different chip compartments by perturbating the system with biological and chemical stressors such as LPS, and H2O2 which are known to induce a reversible disruption of the cellular monolayer after acute administration both in vivo and in vitro. […] To assess changes in the barrier function following the exposure to these insults, we added a fluorescent dye (e.g. […]—Dextran-FITC) to the endothelial compartment, which is under control condition confirmed that the endothelium and epithelium form a barrier to the dies. The presence of a strong barrier is also indirectly confirmed by the presence of continuous pattern of E-cad and VE-cad in the monolayer of Alveolar epithelial and endothelial cell, respectively. […] We also decoupled the effect of single biological component to the inflammatory response by selectively removing them from the system in an integrated matrix. […] In fact, the recorded value of IL-6 and IL-8 is not the algebraic sum of the concentration of the factors released by the single cellular components. […]
The amount of Surfactant B and C was collected from chip epithelial cell surface by PBS washing and measured by Human SFTPB/Surfactant Protein B ELISA Kit (Sandwich ELISA)—LS-F4439 and Human SFTPC/Surfactant Protein C ELISA Kit (Sandwich ELISA)—LS-F12438 (LifeSpanBioScience) following the manufacturer's protocol. The color reaction was measured at 450 nm with a photometer (specification). […] Similarly, the presence of IL-6, IL-8 and MPC in medium samples was detected by Human TLR-induced Cytokines II: Microbial-induced Multi-Analyte ELISArray Kit (MEH-008A) (Qiogen) following the manufacturer's protocol. The color reaction was measured at 450 nm with a photometer (specification). […]

[5] = system: alpha smooth muscle Actin (alpha-SMA); assay: TGF-β treatment of open top Alveolar-Chip (EMT markers, immunostaining / qRT-PCR); format: cell-based, human; details: TGF-β up to 72 hours, versus vehicle
Description: E-cadherin is shown in pink.

[6] = system: human airway epithelium on-chip; details: cited from earlier work

CC1(C)CC[C@]2(C(=O)O)CC[C@]3(C)[C@H](C(=O)C=C4[C@@]5(C)C=C(C#N)C(=O)C(C)(C)[C@@H]5CC[C@]43C)[C@@H]2C1 [Bardoxolone, Bardoxolone (methyl)]
preventive effect on barrier leakage [1]: significant preventive effect on the barrier leakage

OO [H2O2]
loss of barrier function [2]: dose dependent loss of barrier function | E-Cadherin distribution ([3]; H2O2 10 mM, 48 h): induces redistribution of E-Cadherin; also recorded: pronounced loss and re-distribution of E-Cadherin | pneumocyte monolayer integrity (microscopy) ([3]; H2O2 continuous infusion through epithelium top channel): disruption of the pneumocyte monolayer with partial cell detachment | release of IL-6, IL-8 and MCP-1 in medium effluent [4]: no apparent correlation | effect of stressor on barrier function ([1]; LPS 10 ng/ml and/or H2O2 10 mM): causes barrier breakdown and disruption of intracellular junction; also recorded: significant loss of barrier function | reversibility of barrier breakdown after removal of stressor [1]: barrier breakdown in our chip was reversable

TGF-β: transforming growth factor beta1, cytokine inducing epithelial to mesenchymal transition
ICAM-1 staining [5]: lack of ICAM-1 | alpha-SMA induction [5]: induction of alpha smooth muscle Actin (alpha-SMA) | reversibility of barrier breakdown after removal of stressor [1]: barrier breakdown in our chip was reversable

Cc1sc2c(c1C)C(c1ccc(Cl)cc1)=N[C@@H](CC(=O)OC(C)(C)C)c1nnc(C)n1-2 [JQ1, thienotriazolodiazepine]
preventive effect on barrier leakage [1]: significant preventive effect on the barrier leakage

C[C@@H]1CCN(C(=O)CC#N)C[C@@H]1N(C)c1ncnc2[nH]ccc12 [Tofacitinib]
effect on IL-13 induced phenotype [6]: suppressed

IL-13: cytokine perfused to mimic a Th2 enriched microenvironment
airway phenotype on IL-13 perfusion through the vascular channel [6]: significant airway remodeling with goblet cells hyperplasia
